Results as given in patent publication US10377770B2 (Novartis AG, priority 2015, dated 2019).

Each compound was assayed against C-Raf FL (full length CRAF with Y340E and Y341E activating mutations, co-expressed with h14-3-3 zeta) (Homo sapiens (Human), UniProt P04049, Y340E/Y341E) (assay: In vitro Raf activity determination, AlphaScreen p-MEK readout, c-Raf (C-Raf FL)). Conditions: c-Raf approximately 4 nM, ATP 1 μM, pre-incubation 60 minutes, reaction 1 hour.
Type: biochemical
Text: Sf9 cells co-expressing both proteins were lysed and subjected to immobilized nickel chromatography and eluted with Imidazole. A second column (StrepII binding column) was used and eluted with desthiobiotin. Protein Tags were removed using Prescission enzyme and the protein was further purified using a flowthrough step to remove tags.
C-Raf TR refers to a truncated C-Raf protein, a Δ1-324 deletion mutant. C-Raf FL refers to the full-length C-Raf protein.
Full length MEK1 with an inactivating K97R ATP binding site mutation is utilized as a RAF substrate. The MEK1 cDNA was subcloned with an N-terminal (his)6 tag into a vector for E. Coli expression. The MEK1 substrate was purified from E. Coli lysate by nickel affinity chromatography followed by anion exchange. The final MEK1 preparation was biotinylated (Pierce EZ-Link Sulfo-NHS-LC-Biotin) and concentrated.
Assay Materials: Assay buffer is 50 mM Tris, pH 7.5, 15 mM MgCl2, 0.01% Bovine Serum Albumin (BSA) and 1 mM dithiothreitol (DTT); Stop buffer is 60 mM ethylenediaminetetraacetic acid (EDTA) and 0.01% Tween® 20; b-Raf (V600E), active; biotinylated Mek, kinase dead; Alpha Screen detection kit (available from PerkinElmer™, #6760617R); Anti phospho-MEK1/2 (available from Cell Signaling Technology, Inc. #9121); 384 well low volume assay plates (White Greiner® plates).
Assay conditions: b-Raf (V600E) approximately 4 pM; c-Raf approximately 4 nM; biotinylated Mek, kinase dead approximately 10 nM; ATP 10 μM for BRAF (V600E) and 1 μM for CRAF; Pre-incubation time with compounds 60 minutes at room temperature; Reaction time 1 or 3 hours at room temperature.
Assay protocol: Raf and biotinylated Mek (kinase dead) were combined at 2× final concentrations in assay buffer (50 mM Tris, pH 7.5, 15 mM MgCl2, 0.01% BSA and 1 mM DTT) and dispensed […] per well in assay plates (Greiner white 384 well assay plates #781207) containing […] of 40× of a Raf kinase inhibitor test compound diluted in 100% DMSO. The plate was incubated for 60 minutes at room temperature. The Raf kinase activity reaction was started by the addition of […] per well of 2×ATP diluted in assay buffer. After 3 hours (b-Raf(V600E)) or 1 hour (c-Raf). The reactions were stopped and the phosphorylated product was measured using a rabbit anti-p-MEK (Cell Signaling, #9121) antibody and the Alpha Screen IgG (ProteinA) detection Kit (PerkinElmer #6760617R), by the addition of […] to the well of a mixture of the antibody (1:2000 dilution) and detection beads (1:2000 dilution of both beads) in Stop/bead buffer (25 mM EDTA, 50 mM Tris, pH 7.5, 0.01% Tween20). The additions were carried out under dark conditions to protect the detection beads from light. A lid was placed on top of the plate and incubated for 1 hour at room temperature, after which the luminescence was read on a PerkinElmer Envision instrument.

Chain of C-Raf FL (full length CRAF with Y340E and Y341E activating mutations, co-expressed with h14-3-3 zeta) (P04049 whole entry Y340E/Y341E): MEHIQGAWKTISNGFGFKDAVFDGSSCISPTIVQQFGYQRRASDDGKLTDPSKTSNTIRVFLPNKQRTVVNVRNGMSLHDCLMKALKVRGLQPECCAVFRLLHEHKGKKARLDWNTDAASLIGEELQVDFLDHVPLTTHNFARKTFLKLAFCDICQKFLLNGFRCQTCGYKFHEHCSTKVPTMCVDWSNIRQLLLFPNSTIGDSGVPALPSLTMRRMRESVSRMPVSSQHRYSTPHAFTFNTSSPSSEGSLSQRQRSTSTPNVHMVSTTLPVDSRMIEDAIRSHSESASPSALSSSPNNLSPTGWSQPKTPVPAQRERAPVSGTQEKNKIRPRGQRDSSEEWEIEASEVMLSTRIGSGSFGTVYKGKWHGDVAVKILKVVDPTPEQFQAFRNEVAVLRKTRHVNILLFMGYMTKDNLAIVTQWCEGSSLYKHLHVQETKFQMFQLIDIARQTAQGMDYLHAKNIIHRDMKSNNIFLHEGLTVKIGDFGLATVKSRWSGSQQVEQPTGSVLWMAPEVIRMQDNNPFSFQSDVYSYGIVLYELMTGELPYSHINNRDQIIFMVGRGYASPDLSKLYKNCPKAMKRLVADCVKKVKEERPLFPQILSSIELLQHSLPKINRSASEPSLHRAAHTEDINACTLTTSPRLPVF
Chain of C-Raf FL (full length CRAF with Y340E and Y341E activating mutations, co-expressed with h14-3-3 zeta) (P63104 whole entry partner): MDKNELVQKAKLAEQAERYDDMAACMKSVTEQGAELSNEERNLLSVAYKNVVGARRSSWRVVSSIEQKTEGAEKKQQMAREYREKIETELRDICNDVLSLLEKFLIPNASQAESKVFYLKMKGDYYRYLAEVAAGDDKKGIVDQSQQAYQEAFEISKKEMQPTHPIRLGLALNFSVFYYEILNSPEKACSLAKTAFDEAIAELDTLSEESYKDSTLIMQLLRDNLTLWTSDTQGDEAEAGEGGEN

SMILES	IC50
CCN1C[C@H]2COCCN2c2cc(-c3cc(NC(=O)c4ccnc(C(C)(F)F)c4)ccc3C)cnc2C1=O [Example 498, (S)-2-(1,1-difluoroethyl)-N-(3-(6-ethyl-7-oxo-1,2,4a,5,6,7-hexahydro-4H-[1,4]oxazino[4,3-a]pyrido[2,3-f][1,4]diazepin-10-yl)-4-methylphenyl)iso-nicotinamide]	0.6 nM
Cc1ccc(NC(=O)c2ccnc(C(C)(F)F)c2)cc1-c1cnc2c(c1)N1CCOC[C@@H]1C(F)(F)[C@@H]2O [Example 162, N-(3-((4aR,6R)-5,5-difluoro-6-hydroxy-1,2,4,4a,5,6-hexahydro-[1,4]oxazino[4,3-a][1,5]naphthyridin-9-yl)-4-methylphenyl)-2-(1,1-difluoroethyl)isonicotinamide]	0.093 nM
Cc1ccc(NC(=O)c2cncc(C(F)(F)F)c2)cc1-c1cc2c(cc1F)C[C@](F)(CO)[C@H]1COCCN21 [Example 488, N-(3-((4aR,5R)-5,8-difluoro-5-(hydroxymethyl)-1,2,4,4a,5,6-hexahydro-[1,4]oxazino[4,3-a]quinolin-9-yl)-4-methylphenyl)-5-(trifluoromethyl) nicotinamide]	0.3 nM
Cc1ncc(NC(=O)c2cccc(C(F)(F)F)c2)cc1-c1ccc2c(c1)N1CCOCC[C@H]1C[C@H]2O [Example 446, N-(5-((5aS,7R)-7-hydroxy-1,2,5,5a,6,7-hexahydro-4H-[1,4]oxazepino [4,5-a]quinolin-10-yl)-6-methylpyridin-3-yl)-3-(trifluoro-methyl)benzamide]	0.7 nM
Cc1ccc(NC(=O)c2ccnc(C(C)(F)F)c2)cc1-c1cc(F)c2c(c1)N1CCOC[C@@H]1[C@](F)(CO)C2 [Example 436, N-(3-((4aR,5S)-5,7-difluoro-5-(hydroxymethyl)-1,2,4,4a,5,6-hexahydro-[1,4]oxazino[4,3-a]quinolin-9-yl)-4-methylphenyl)-2-(1,1-difluoroethyl) isonicotinamide]	0.3 nM
Cc1ccc(NC(=O)c2ccnc(C(C)(C)F)c2)cc1-c1cnc2c(c1)N1CCOC[C@H]1C[C@H]2OCCO [Example 511, 2-(2-fluoropropan-2-yl)-N-(3-((4aR,6R)-6-(2-hydroxyethoxy)-1,2,4,4a,5,6-hexahydro-[1,4]oxazino[4,3-a][1,5]naphthyridin-9-yl)-4-methylphenyl)iso-nicotinamide]	0.2 nM
Cc1ccc(NC(=O)c2ccnc(C(F)(F)F)c2)cc1-c1cnc2c(c1)C1(C)CCOCCC1C(=O)N2CCO (single isomer, unassigned) [Example 356, N-(3-((5a,11b-trans)-7-(2-hydroxyethyl)-11b-methyl-6-oxo-1,2,4,5,5a,6,7,11b-octahydrooxepino[4,5-c][1,8]naphthyridin-10-yl)-4-methylphenyl)-2-(trifluoromethyl)isonicotinamide]	0.1 nM
Cc1ccc(NC(=O)c2ccnc(C(C)(F)F)c2)cc1-c1cc2c(nn1)OCC1COCCN21 (racemic) [Example 135, rac-2-(1,1-Difluoroethyl)-N-(4-methyl-3-(6a,7,9,10-tetrahydro-6H-[1,4]oxazino[4,3-d]pyridazino[3,4-b][1,4]oxazin-2-yl)phenyl)isonicotinamide]	0.019 nM
CCN1C(=O)C2COCCN2c2cc(-c3cc(NC(=O)c4ccnc(C(F)(F)F)c4)ccc3C)cnc21 (stereo in doubt) [Example 115, (R)-N-(3-(6-ethyl-5-oxo-1,2,4,4a,5,6-hexahydropyrido2′,3′:5,6]pyrazino[2,1-c][1,4]oxazin-9-yl)-4-methylphenyl)-2-(trifluoromethyl)isonicotinamide]	0.011 nM
CCN1C(=O)OC2COCCC2c2cc(-c3cc(NC(=O)c4cccc(C(F)(F)F)c4F)cnc3C)cnc21 [Example 300, N-(5-((4aS,11bR- cis)-7-ethyl-6-oxo-2,4,4a,6,7,11b-hexahydro-1H-pyrano[4,3-f]pyrido[2,3-d][1,3]oxazepin-10-yl)-6-methylpyridin-3-yl)-2-fluoro-3-(trifluoromethyl) benzamide]	0.2 nM
Cc1ccc(NC(=O)c2ccnc(C(F)(F)F)c2)cc1-c1cnc2c(c1)N1CCOC[C@H]1[C@@](C#N)(CF)C2 [Example 520]	0.1 nM
CCN1C(=O)C[C@@H]2COCCN2c2cc(-c3cc(NC(=O)c4cncc(C(F)(F)F)c4)ccc3C)cnc21 [Example 328, (R)-N-(3-(7-ethyl-6-oxo-2,4,4a,5,6,7-hexahydro-1H-[1,4]oxazino[4,3-d]pyrido[2,3-b][1,4]diazepin-10-yl)-4-methylphenyl)-5-(trifluoromethyl) nicotinamide]	0.1 nM
Cc1ccc(NC(=O)c2ccnc(C(F)(F)F)c2)cc1-c1cnc2c(c1)N1CCOCC1C(CO)C2 (racemic) [Example 123, rac-cis-N-(3-(5-(hydroxymethyl)-1,2,4,4a,5,6-hexahydro-[1,4]oxazino[4,3-a][1,5]naphthyridin-9-yl)-4-methylphenyl)-2-(trifluoromethyl)isonicotinamide]	0.0052 nM
CCN1C(=O)[C@H]2[C@@H]3COC[C@@H]3[C@H]2c2cc(-c3cc(NC(=O)c4ccnc(C(F)(F)F)c4)ccc3C)cnc21 (racemic) [Example 362]	0.2 nM
CCN1C[C@@H]2COCC[C@H]2c2cc(-c3cc(NC(=O)c4cccc(C(F)(F)F)c4)cnc3C)cnc21 [Example 295, N-(5-((4aR, 10bR)-6-ethyl-2,4,4a,5,6,10b-hexahydro-1H-pyrano[3,4-c][1,8]naphthyridin-9-yl)-6-methylpyridin-3-yl)-3-(trifluoromethyl) benzamide]	0.1 nM
Cc1ccc(NC(=O)c2ccnc(C(C)(C)C#N)c2)cc1-c1cnc2c(c1)N1CCOC[C@H]1C[C@H]2O [Example 150, 2-(2-cyanopropan-2-yl)-N-(3-((4aR,6R)-6-hydroxy-1,2,4,4a,5,6-hexahydro-[1,4]oxazino[4,3-a][1,5]naphthyridin-9-yl)-4-methylphenyl)isonicotinamide]	0.079 nM
Cc1ccc(NC(=O)c2ccnc(C(F)(F)F)c2)cc1-c1cc2c(cc1F)C[C@@](F)(CO)[C@@H]1COCCN21 [Example 485, N-(3-((4aS,5S)-5,8-difluoro-5-(hydroxymethyl)-1,2,4,4a,5,6-hexahydro-[1,4]oxazino[4,3-a]quinolin-9-yl)-4-methylphenyl)-2-(trifluoromethyl) isonicotinamide]	0.3 nM
Cc1ccc(NC(=O)c2ccnc(C(C)(C)F)c2)cc1-c1cc(F)c2c(c1)N1CCOC[C@@H]1[C@@](F)(CO)C2 [Example 427, N-(3-((4aR,5R)-5,7-difluoro-5-(hydroxymethyl)-1,2,4,4a,5,6-hexahydro-[1,4]oxazino[4,3-a]quinolin-9-yl)-4-methylphenyl)-2-(2-fluoropropan-2-yl)isonicotinamide]	0.6 nM
CNC[C@@H]1Cc2ncc(-c3cc(NC(=O)c4ccnc(C(F)(F)F)c4)ccc3C)cc2N2CCOC[C@@H]12 [Example 530, N-(4-methyl-3-((4aR,5S)-5-((methylamino)meth-yl)-1,2,4,4a,5,6-hexahydro-[1,4]oxazino[4,3-a][1,5]naphthyridin-9-yl)phenyl)-2-(trifluoromethyl)iso-nicotinamide]	0.4 nM
Cc1ccc(NC(=O)c2ccnc(C(F)(F)F)c2)cc1-c1cnc2c(c1)N1CCOC[C@@H]1[C@H](CO)C2 [Example 494, N-(3-((4aS,5R)-5-(hydroxymethyl)-1,2,4,4a,5,6-hexahydro-[1,4]oxazino[4,3-a][1,5]naphthyridin-9-yl)-4-methyphenyl)-2-(trifluoromethyl)iso-nicotinamide]	0.1 nM
CCN1C(=O)C2COCCN2c2cc(-c3cc(NC(=O)c4ccnc(C(F)(F)F)c4)ccc3C)cnc21 (racemic) [Example 113, rac-N-(3-(6-Ethyl-5-oxo-1,2,4,4a,5,6-hexahydropyrido[2′,3′:5,6]pyrazino[2,1-c][1,4]oxazin-9-yl)-4-methylphenyl)-2-(trifluoromethyl)isonicotinamide]	0.0084 nM
Cc1ccc(NC(=O)c2ccnc(C(C)(F)F)c2)cc1-c1cc2c(nn1)[C@H](O)C[C@@H]1COCCN21 (racemic) [Example 46, (rac)(trans)-2-(1,1-difluoroethyl)-N-(3-(5-hydroxy-5,6,6a,7,9,10-hexahydropyridazino[3′,4′:5,6]pyrido[2,1-c][1,4]oxazin-2-yl)-4-methylphenyl)isonicotinamide]	0.014 nM
